Data published in PubChem BioAssay AID2305 (GlaxoSmithKline (GSK), 2010).
pIC50: −log10 of the molar value.

tested on: P. falciparum 3D7 growth, pLDH absorbance; assay: P. falciparum 3D7 growth inhibition, dose response, strain 3D7 (AID 2305)

`O=C(c1ccc(Cl)cc1)C1CCN(CCCOc2ccc3c(c2)CCNCC3)CC1` and `C=CCc1cc(C2CCN(CCCCNC(=O)c3ccc(-c4ccc(C#N)cc4)cc3)CC2)c(OCC(N)=O)c2c1CCCC2` are within 0.2 log units of each other in pIC50: 5.94 for the first, 6.10 for the second.

Going from `CC(=O)N1Cc2ccccc2C1=O` to `Cc1ccccc1C1CCN(C2CCC(NC(=O)/C=C/c3ccc(F)c(F)c3)CC2)CC1` (stereo not given), the pIC50 falls from 6.28 to 6.02 (0.26 log units). The first is the more potent here.

First: O=C(Nc1cccc(-c2cccc(-c3nc4ccc(C(F)(F)F)cc4[nH]3)c2)c1)c1cccnc1
Second: CC(C)NCc1cccc(-c2cccc(NC(=O)c3cccc(C#N)c3)c2)c1
The pIC50 of the first is 0.31 log units higher: 6.40 for the first, 6.09 for the second.

Compared with `Cc1c(Cc2ccccc2Cl)cnc2nc(N)nc(N)c12`, `Nc1nc(N)c2c(ccc3nn(Cc4cccnc4)cc32)n1` is 1.56 log units lower in pIC50: 8.00 for the first, 6.44 for the second. The first is the more potent here.

First: CCCCCCc1c(C)[nH]c2cc(OC)ccc2c1=O
Second: C=Cc1ccc(-c2c(C)[nH]c(C)c(Br)c2=O)cc1
The pIC50 of the first is 0.67 log units higher: 6.92 for the first, 6.25 for the second.

`Nc1nccc2ccc(-c3cccnc3)cc12` and `COc1ccc(-c2ccc3c(-c4ccc(F)cc4)cnc(N)c3c2)cn1` are within 0.2 log units of each other in pIC50: 6.38 for the first, 6.41 for the second.

`C=C[C@]1(C)C[C@@H](OC(=O)c2n[nH]c3ccccc3c2=O)[C@]2(C)[C@H](C)CC[C@]3(CCC(=O)[C@H]32)[C@@H](C)[C@@H]1O` and `COC(=O)c1ccccc1COc1ccc(CC2(NC(=O)[C@H](Nc3ccc(C#N)c4ccccc34)C(C)(C)C)CCCC2)cc1` are within 0.2 log units of each other in pIC50: 6.17 for the first, 6.07 for the second.

`CCCCCOc1ccc(C(O)C(CN2CCCCC2)c2ccccc2)cc1` (stereo not given) and `N#Cc1ccc(-c2ccc(OCC(O)CN3CCCN(Cc4cccc(O)c4Cl)CC3)cc2)cc1` (stereo not given) are within 0.2 log units of each other in pIC50: 6.06 for the first, 6.16 for the second.

Compared with `COc1cc(C)cc(CN2CCC(Cc3ccccc3)CC2)c1O`, `Cc1c(-c2cccc(C(C)(C)NC3CCN(Cc4ccccc4)CC3)c2)cnc(N)c1C` is 0.25 log units higher in pIC50: 5.99 for the first, 6.24 for the second. The second is the more potent here.

First: CCOC(=O)Cc1nc(N)c(C(=O)OCC)[nH]1
Second: CCOc1ccc(-c2nonc2NC(=O)c2ccccc2OC)cc1OCC
The pIC50 of the first is 0.43 log units lower: 6.19 for the first, 6.62 for the second.

`CN1CCN(Cc2ccc(-c3ccc4c(Nc5ccc(Oc6ccccn6)cc5)ccnc4c3)o2)CC1` and `Cc1cccc2[nH]c(-c3ccc(-c4cccc(CN5CCN(c6ccncc6)CC5)c4)s3)nc12` are within 0.2 log units of each other in pIC50: 6.85 for the first, 6.89 for the second.

Going from `COc1ccc(-n2cc(CNCCCn3ccnc3)c(-c3cccc(F)c3)n2)cc1` to `COc1ccc(CNCc2cccc(-c3ccc(-c4nc5c(C)cccc5[nH]4)s3)c2)cc1`, the pIC50 rises from 5.97 to 6.59 (0.62 log units). The second is the more potent here.

Going from `Cc1ccccc1C1CCN(c2ccc(C(=O)Nc3ccccc3)cn2)CC1` to `Cc1ccccc1C1CCN(C2CCC(NC(=O)/C=C/c3cccc(C(F)(F)F)c3)CC2)CC1` (stereo not given), the pIC50 falls from 6.48 to 5.82 (0.66 log units).

`O=C(Nc1cccc(CN2CCCN(Cc3ccc(O)cc3)CC2)c1)c1cccc(Cl)c1` and `Cc1ccc(NC(=O)c2ccc(CN3CCCN(Cc4cccc(O)c4)CC3)cc2)cc1F` are within 0.2 log units of each other in pIC50: 6.04 for the first, 6.23 for the second.

Going from `COc1ccc2nccc([C@@H](O)CN3CCC(NCc4nc5c(C#N)cccc5[nH]4)CC3)c2c1` to `COc1ccc2nccc([C@@H](O)CN3CCC(NCc4cc5cc(Cl)ccc5[nH]4)CC3)c2c1`, the pIC50 rises from 6.00 to 6.89 (0.89 log units). The second is the more potent here.

Compared with `COc1ccc(Cl)cc1N1CCN(CCCNC(=O)c2ccc(-c3nc4cc(Cl)c(F)cc4[nH]3)cc2)CC1`, `c1cc(CN2CCN(CCN3CCOCC3)CC2)cc(-c2ccc(-c3nc4ccccc4[nH]3)cc2)c1` is 0.92 log units higher in pIC50: 5.97 for the first, 6.89 for the second.

`CC(C)C[C@H]1C(=O)N[C@H](C2Cc3ccccc3C2)C(=O)N1[C@@H](C(=O)Nc1ccccc1OCc1ccccc1)c1ccc(F)cc1F` and `O=S(=O)(NCCN1CCCC1)c1ccc(-c2ccc(CNCc3ccccc3)cc2)cc1F` are within 0.2 log units of each other in pIC50: 5.99 for the first, 5.89 for the second.

`COc1ccc2c(c1)CC(CNC[C@H](O)c1cccc(Cl)c1)CC2` (stereo not given in full) and `Cc1cc(CNC(c2ccccc2)C2CCC2)cc(C)c1O` (stereo not given) are within 0.2 log units of each other in pIC50: 6.00 for the first, 6.05 for the second.

Going from `COc1cc2nc(-c3ccccc3)nc(N3CCN(CC(=O)N4CCCC4)CC3)c2cc1OC` to `CC[C@H]1CN2CC[C@@H]1C[C@H]2[C@H](O)c1cc(N2CCC(N3CCCCC3)CC2)nc2ccc(OC)cc12`, the pIC50 rises from 5.95 to 6.57 (0.62 log units). The second is the more potent here.

Compared with `Cc1[nH]c(C)c(-c2ccc(CCc3cccc(C(F)(F)F)c3)nc2)c(=O)c1Cl`, `Cc1cccc2[nH]c(-c3cccc(-c4cccc(CNCC5CCCO5)c4)c3)nc12` (stereo not given) is 0.78 log units lower in pIC50: 7.00 for the first, 6.22 for the second.

First: Cc1ccc(NC(=O)c2ccc(N3CCN(c4ccncc4)CC3)cn2)cc1F
Second: COc1ccc(Nc2c3ccc(Cl)cc3nc3ccc(OC)cc23)cc1
The pIC50 of the first is 0.56 log units lower: 5.80 for the first, 6.36 for the second.

Compared with `CCN(CCO)CCCC(C)Nc1ccnc2cc(Cl)ccc12` (stereo not given), `CCCOc1cc2c(cc1OCCC)C(C=Cc1ccc(Cl)cc1Cl)=NC(C)C2` (stereo not given) is 0.31 log units higher in pIC50: 6.12 for the first, 6.43 for the second.

`CN(/N=C/C=C/c1ccc(Cl)cc1)c1nc(NCCc2ccc(O)cc2)nc(N2CCNCC2)n1` and `CC1(C)[C@H]2CC[C@@H](CNc3nc(NCCc4cnc[nH]4)nc(Nc4ccc(Oc5ccccc5)cc4)n3)[C@@H]1C2` are within 0.2 log units of each other in pIC50: 6.06 for the first, 6.17 for the second.

`O=C(Nc1nc(-c2ccccn2)cs1)c1ccc(Br)s1` and `COc1ccc2nc(-c3ccccc3)cc(NCCN(C)C)c2c1` are within 0.2 log units of each other in pIC50: 5.97 for the first, 6.14 for the second.

`COc1ccc(-c2nnc(Sc3ccc(C#N)c([N+](=O)[O-])c3)n2CC(C)C)cc1` and `CCCN(CC1CC1)c1ncc(-c2cccc(CNCc3ccccc3O)c2)cn1` are within 0.2 log units of each other in pIC50: 6.09 for the first, 6.15 for the second.
